Test results published in PubChem BioAssay AID1963973 (Molecular Pharmacology Branch, DTP, NCI, 2024).

System: 883617-216-R-J1-PDC tumor spheroids, viability
Assay: Anticancer human tumor 883617-216-R-J1-PDC patient-derived bladder carcinoma cell line growth inhibition [PI3K]
Conditions: spheroids with HUVEC and MSC; for IC50: curve of first compound; for viability, T/C: stronger effect = lower value
Outline: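 Multi-cell spheroids combine tumor cells with HUVEC and human MSCs, treated with targeted agents alone or with inavolisib, alpelisib, duvelisib or copanlisib. Concentrations fall in half-log steps from at or near clinical Cmax, or from 10 microM where Cmax is unknown; viability read-out.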

[1] = second compound 0.0316 µM, first compound 0.0316 µM
[2] = second compound 0.0316 µM, first compound 0.1 µM
[3] = second compound 0.0316 µM, first compound 0.316 µM
[4] = second compound 0.0316 µM, first compound 1 µM
[5] = second compound 0.0316 µM, first compound 3.16 µM
[6] = second compound 0.0316 µM, first compound 10 µM
[7] = second compound 0.1 µM, first compound 0.0316 µM
[8] = second compound 0.1 µM, first compound 0.1 µM
[9] = second compound 0.1 µM, first compound 0.316 µM
[10] = second compound 0.1 µM, first compound 1 µM
[11] = second compound 0.1 µM, first compound 3.16 µM
[12] = second compound 0.1 µM, first compound 10 µM
[13] = second compound 0.316 µM, first compound 0.0316 µM
[14] = second compound 0.316 µM, first compound 0.1 µM
[15] = second compound 0.316 µM, first compound 0.316 µM
[16] = second compound 0.316 µM, first compound 1 µM
[17] = second compound 0.316 µM, first compound 3.16 µM
[18] = second compound 0.316 µM, first compound 10 µM
[19] = second compound 1 µM, first compound 0.0316 µM
[20] = second compound 1 µM, first compound 0.1 µM
[21] = second compound 1 µM, first compound 0.316 µM
[22] = second compound 1 µM, first compound 1 µM
[23] = second compound 1 µM, first compound 3.16 µM
[24] = second compound 1 µM, first compound 10 µM
[25] = second compound 3.16 µM, first compound 0.0316 µM
[26] = second compound 3.16 µM, first compound 0.1 µM
[27] = second compound 3.16 µM, first compound 0.316 µM
[28] = second compound 3.16 µM, first compound 1 µM
[29] = second compound 3.16 µM, first compound 3.16 µM
[30] = second compound 3.16 µM, first compound 10 µM
[31] = second compound 10 µM, first compound 0.0316 µM
[32] = second compound 10 µM, first compound 0.1 µM
[33] = second compound 10 µM, first compound 0.316 µM
[34] = second compound 10 µM, first compound 1 µM
[35] = second compound 10 µM, first compound 3.16 µM
[36] = second compound 10 µM, first compound 10 µM
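Also: spheroids exposed to agents for 7 days before the viability read.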

In the case of `CC1(C)CCC(CN2CCN(c3ccc(C(=O)NS(=O)(=O)c4ccc(NCC5CCOCC5)c([N+](=O)[O-])c4)c(Oc4cnc5[nH]ccc5c4)c3)CC2)=C(c2ccc(Cl)cc2)C1` + Cc1nc(NC(=O)N2CCCC2C(N)=O)sc1-c1ccnc(C(C)(C)C(F)(F)F)c1, the IC50 (second compound 0.0316 µM) is reported as 5050 nM, the IC50 (second compound 0.1 µM) is reported as 4460 nM and the IC50 (second compound 0.316 µM) is reported as less than 31.6 nM. The IC50 (second compound 1 µM) was less than 31.6 nM, the IC50 (second compound 3.16 µM) was less than 31.6 nM and the IC50 (second compound 10 µM) was less than 31.6 nM. The viability, T/C [1] was 85.3%, the viability, T/C [2] was 84% and the viability, T/C [3] was 87.7%. For the same compound, the viability, T/C [4] was 81.2%, the viability, T/C [5] was 81.8% and the viability, T/C [6] was 3.63%. For the same compound, the viability, T/C [7] was 66.6%, the viability, T/C [8] was 66.1% and the viability, T/C [9] was 79.5%. For the same compound, the viability, T/C [10] was 67.3%, the viability, T/C [11] was 71.3% and the viability, T/C [12] was 3.02%. For the same compound, the viability, T/C [13] was 47.4%, the viability, T/C [14] was 45% and the viability, T/C [15] was 51.2%. The viability, T/C [16] was 52.6%, the viability, T/C [17] was 44.5% and the viability, T/C [18] was 4.5%. For the same compound, the viability, T/C [19] was 41.3%, the viability, T/C [20] was 28.9% and the viability, T/C [21] was 29.4%. It also gave a viability, T/C [22] of 33.2%, a viability, T/C [23] of 30.7% and a viability, T/C [24] of 3.44%. The viability, T/C [25] was 14.8%, the viability, T/C [26] was 14.4% and the viability, T/C [27] was 17.1%. For the same compound, the viability, T/C [28] was 14.3%, the viability, T/C [29] was 14.7% and the viability, T/C [30] was 2.57%. The viability, T/C [31] was 7.93%, the viability, T/C [32] was 12.9% and the viability, T/C [33] was 7.45%. For the same compound, the viability, T/C [34] was 8.13%, the viability, T/C [35] was 7.77% and the viability, T/C [36] was 1.74%.
Compound `C[C@@H](NC(=O)c1ncnc(N)c1Cl)c1ncc(C(=O)Nc2cc(C(F)(F)F)c(Cl)cn2)s1` + Cc1nc(NC(=O)N2CCCC2C(N)=O)sc1-c1ccnc(C(C)(C)C(F)(F)F)c1 has an IC50 (second compound 0.0316 µM) greater than 10000 nM, an IC50 (second compound 0.1 µM) greater than 10000 nM and an IC50 (second compound 0.316 µM) of 2000 nM. For the same compound, the IC50 (second compound 1 µM) was less than 31.6 nM, the IC50 (second compound 3.16 µM) was less than 31.6 nM and the IC50 (second compound 10 µM) was less than 31.6 nM. The viability, T/C [1] was 89.3%, the viability, T/C [2] was 91.5% and the viability, T/C [3] was 94.9%. For the same compound, the viability, T/C [4] was 85.2%, the viability, T/C [5] was 82.1% and the viability, T/C [6] was 58%. It also gave a viability, T/C [7] of 69%, a viability, T/C [8] of 74.2% and a viability, T/C [9] of 73.3%. The viability, T/C [10] was 73%, the viability, T/C [11] was 75.1% and the viability, T/C [12] was 57.7%. The viability, T/C [13] was 48.3%, the viability, T/C [14] was 52.6% and the viability, T/C [15] was 49.7%. For the same compound, the viability, T/C [16] was 53.8%, the viability, T/C [17] was 48.8% and the viability, T/C [18] was 37.9%. The viability, T/C [19] was 29.6%, the viability, T/C [20] was 33.4% and the viability, T/C [21] was 29.2%. For the same compound, the viability, T/C [22] was 33%, the viability, T/C [23] was 24.9% and the viability, T/C [24] was 24.4%. For the same compound, the viability, T/C [25] was 15.3%, the viability, T/C [26] was 14.3% and the viability, T/C [27] was 16.9%. For the same compound, the viability, T/C [28] was 15.7%, the viability, T/C [29] was 16.6% and the viability, T/C [30] was 12.1%. The viability, T/C [31] was 9.78%, the viability, T/C [32] was 8.18% and the viability, T/C [33] was 11.9%. For the same compound, the viability, T/C [34] was 8.65%, the viability, T/C [35] was 7.27% and the viability, T/C [36] was 3.76%.
